Results on 21 compounds are retold here after patent US10183939B2, “Fused bicyclic (hetero)aromatic compounds useful for the treatment of cancers” (Redx Pharma PLC, priority 2014, dated 2019).

Entries after “also recorded” stand apart in the source; their conditions may differ. Like-named read-outs stand apart in the source and are kept apart here.

The target in one assay is B-RAF^V600E kinase (Homo sapiens (Human), UniProt P15056, V600E). Put plainly: LanthaScreen Eu kinase binding assay (B-RAF V600E). To be noted: tracer 178 competition, 5 hours. (TR-FRET usually uses a lanthanide donor and a delayed reading to cut background.)
The next assay has as its target C-RAF Y340D/Y341D kinase (Homo sapiens (Human), UniProt P04049, Y340D/Y341D). Put plainly: LanthaScreen Eu kinase binding assay (C-RAF). The following applies: tracer 178 competition, 5 hours.
The subject of assay [1] is ERK phosphorylation in A375 cells (B-RAF^V600E). Put plainly: A375 AlphaScreen SureFire pERK1/2 cellular assay. The class given is cell-based. The following applies: Homo sapiens, A-375, 0.5 h, 30 minutes treatment. A general note: Bead proximity is the source of the signal in Alpha formats.
Protocol: On day 2, compounds at a concentration of 6 mM are serially diluted 10 μl into 90 μl of 100% dimethyl sulfoxide (DMSO) six times in 96-well plates for a total of 7 dilution points. Each dilution and a DMSO control are further diluted 1:200 (e.g. 5 μl into 995 μl serum-free growth media). The media is removed and 50 μl compound dilution or control in serum-free media is added to triplicate wells containing cells, providing 30 μM compound at the maximum concentration. The cells are treated for 30 minutes at room temperature. The treatment is then removed and the cells are incubated with lysis buffer containing phosphatase inhibitors for 10 minutes at room temperature. […] The biotinylated antibody binds to the streptavidin-coated donor beads and the phopsho-ERK1/2 antibody binds to the acceptor beads. Plates are read on an EnVision reader (Perkin Elmer) and excitation of the beads at 680 nm with a laser induces the release of singlet oxygen molecules from the donor beads that trigger energy transfer to the acceptor beads in close proximity, producing a signal that can be measured at 570 nm. Both antibodies bind to phosphorylated ERK proteins, bringing the donor and acceptor beads into close proximity.
(§1) All data are analysed using the GraphPad Prism software package.
The test system of assay [2] is C-RAF-mediated ERK activation in B-RAF^WT IPC-298 cells (NRAS^Q61L). Kind of assay: IPC-298 AlphaScreen SureFire pERK1/2 cellular assay. To be noted: 1 hour treatment, relative to reference compound Dabrafenib. The format is cell-based, human.
Protocol: On day 2, compounds at a concentration of 6 mM are serially diluted 5 μl into 45 μl of 100% dimethyl sulfoxide (DMSO) six times in 96-well plates for a total of 7 dilution points. […] The cells are treated for 1 hour at 37° C. in 5% CO2. The treatment is then removed and the cells are incubated with lysis buffer containing phosphatase inhibitors for 10 minutes at room temperature with gentle shaking. […] The biotinylated antibody binds to the streptavidin-coated donor beads and the phopsho-ERK1/2 antibody binds to the acceptor beads. Plates are read on an EnVision reader (Perkin Elmer) and excitation of the beads at 680 nm with a laser induces the release of singlet oxygen molecules from the donor beads that triggers energy transfer to the acceptor beads in close proximity, producing a signal that can be measured at 570 nm. Both antibodies bind to phosphorylated ERK proteins, bringing the donor and acceptor beads into close proximity.
All data are analysed using the GraphPad Prism software package. Activation of ERK phosphorylation is expressed as a percentage of activation relative to the reference compound, Dabrafenib.
Assay [3] deals with ERK phosphorylation in WiDr cells (B-RAF^V600E). Kind of assay: WiDr AlphaScreen SureFire pERK1/2 cellular assay. The format is cell-based. To be noted: Homo sapiens.
Protocol: The human WiDr colorectal cell line endogenously expresses the B-RAF^V600E mutation, which leads to constitutive activation of the MAP kinase pathway and phosphorylation of ERK in the absence of ligands.
On day 2, compounds at a concentration of 6 mM are serially diluted 10 μl into 90 μl of 100% dimethyl sulfoxide (DMSO) six times in 96-well plates for a total of 7 dilution points. Each dilution and a DMSO control are further diluted 1:200 (e.g. 5 μl into 995 μl minimum essential medium+0.1% fetal bovine serum). The media is removed and 100 μl compound dilution or control in minimum essential medium+0.1% fetal bovine serum is added to triplicate wells containing cells, providing 30 μM compound at the maximum concentration. The cells are treated for 1 hour or 24 hours at 37° C. The treatment is then removed and the cells are incubated with lysis buffer containing phosphatase inhibitors for 10 minutes at room temperature. […] The biotinylated antibody binds to the streptavidin-coated donor beads and the phopsho-ERK1/2 antibody binds to the acceptor beads. Plates are read on an EnVision reader (Perkin Elmer) and excitation of the beads at 680 nm with a laser induces the release of singlet oxygen molecules from the donor beads that triggers energy transfer to the acceptor beads in close proximity, producing a signal that can be measured at 570 nm. Both antibodies bind to phosphorylated ERK proteins, bringing the donor and acceptor beads into close proximity.
as §1
Where [4] appears, read: IC50 category, read-out: BRAF^V600E binding affinity.
The mark [5] stands for this setting: IC50 category, read-out: CRAF binding affinity.
Where [6] appears, read: read-out: A375 pERK inhibition category.
The mark [7] stands for this setting: read-out: BRAF^V600E binding affinity IC50.
Where [8] appears, read: read-out: CRAF binding affinity IC50.
Where [9] appears, read: read-out: A375 pERK inhibition IC50.
The mark [10] stands for this setting: 1 hr treatment, read-out: WiDr pERK inhibition category 1 hr.
Setting [11] is: 24 hrs treatment, read-out: WiDr pERK inhibition category 24 hrs.

B-RAF^V600E kinase, sequence (P15056 whole entry V600E): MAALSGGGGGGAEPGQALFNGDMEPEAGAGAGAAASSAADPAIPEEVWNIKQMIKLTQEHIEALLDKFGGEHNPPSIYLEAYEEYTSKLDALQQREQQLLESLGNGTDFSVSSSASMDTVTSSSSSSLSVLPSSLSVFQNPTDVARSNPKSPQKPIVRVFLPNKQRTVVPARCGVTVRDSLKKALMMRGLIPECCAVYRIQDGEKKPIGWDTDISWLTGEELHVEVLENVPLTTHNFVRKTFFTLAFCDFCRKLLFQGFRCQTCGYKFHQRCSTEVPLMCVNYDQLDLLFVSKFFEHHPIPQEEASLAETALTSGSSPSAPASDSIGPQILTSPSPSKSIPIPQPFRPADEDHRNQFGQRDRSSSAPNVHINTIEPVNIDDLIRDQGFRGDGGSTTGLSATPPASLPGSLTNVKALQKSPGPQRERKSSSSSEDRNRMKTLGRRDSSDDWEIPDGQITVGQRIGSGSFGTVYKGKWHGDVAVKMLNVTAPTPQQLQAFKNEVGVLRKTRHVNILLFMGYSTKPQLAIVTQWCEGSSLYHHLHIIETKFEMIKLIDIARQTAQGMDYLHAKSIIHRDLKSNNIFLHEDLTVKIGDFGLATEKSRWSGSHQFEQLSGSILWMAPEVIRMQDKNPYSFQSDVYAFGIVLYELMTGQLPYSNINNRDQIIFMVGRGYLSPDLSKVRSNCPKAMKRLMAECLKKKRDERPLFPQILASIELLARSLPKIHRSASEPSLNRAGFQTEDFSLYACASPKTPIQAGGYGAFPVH
C-RAF Y340D/Y341D kinase, sequence (P04049 306-648 Y340D/Y341D): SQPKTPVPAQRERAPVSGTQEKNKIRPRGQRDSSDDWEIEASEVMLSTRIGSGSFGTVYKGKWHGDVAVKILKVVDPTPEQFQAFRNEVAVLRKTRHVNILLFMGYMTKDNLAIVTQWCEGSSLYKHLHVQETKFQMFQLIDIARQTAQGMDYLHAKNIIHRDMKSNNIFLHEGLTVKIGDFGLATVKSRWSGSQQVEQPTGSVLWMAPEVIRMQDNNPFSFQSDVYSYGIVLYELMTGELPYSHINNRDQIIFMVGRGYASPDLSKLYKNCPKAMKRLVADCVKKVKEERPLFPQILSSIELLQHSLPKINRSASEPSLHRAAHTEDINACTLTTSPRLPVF
Protocol for B-RAF^V600E kinase: LanthaScreen™ Eu kinase binding assay
To determine whether compounds bind to RAF kinases, they are tested in a competition binding assay. […] A Europium-labelled anti-tag antibody also binds to the kinase of interest.
(§2) Compounds at a concentration of 3 mM are serially diluted (e.g. 10 μl 90 μl of 100% dimethyl sulfoxide (DMSO)) seven times in 96-well plates for a total of 8 dilution points. Each DMSO dilution is further diluted 1:100 in kinase buffer (e.g. 5 μl into 495 μl kinase buffer) containing 50 mM HEPES pH 7.5, 10 mM MgCl2, 1 mM EGTA, 0.01% Brij-35.
(§3) The plates are incubated for 5 hours at room temperature and read on an EnVision plate reader (Perkin Elmer).
as §1
Protocol for C-RAF Y340D/Y341D kinase: LanthaScreen™ Eu kinase binding assay
To determine whether compounds bind to RAF kinases, they are tested in a competition binding assay. The Invitrogen LanthaScreen™ Eu binding assay involves the binding of an Alexa-Fluor® 647-labelled, ATP-competitive kinase tracer to the kinase of interest. A Europium-labelled anti-tag antibody also binds to the kinase of interest. Simultaneous binding of the tracer and the antibody brings them into close proximity and upon excitation at 340 nm, triggers fluorescence resonance energy transfer (FRET) between the Europium donor fluorophore on the antibody and the Alexa Fluor® 647 acceptor on the tracer. The dual emission signal produced can be measured at 665 and 615 nm.
as §2, §3
All data are analysed using the GraphPad Prism software package. Inhibition of tracer binding to the kinase of interest is assessed by determination of IC50 value, which is defined as the concentration of compound which decreased the level of FRET signal measured at 665 nm by 50%.

`O=C1CCc2c(Oc3ccc4c(c3)CC(c3nc5ccccc5[nH]3)CO4)ccnc2N1` (stereo not drawn) [Example 1, 5-[3-(1H-benzimidazol-2-yl)chroman-6-yl]oxy-3,4-dihydro-1H-1,8-naphthyridin-2-one]: the IC50 on B-RAF^V600E kinase (setting [4]) and at C-RAF Y340D/Y341D kinase (setting [5]) was less than 4 nM in each case.
On to `O=C1CCc2c(Oc3ccc4c(c3)CC(c3nc5cccc(Cl)c5[nH]3)CO4)ccnc2N1` (stereo not drawn) [Example 2, 5-[3-(7-chloro-1H-benzimidazol-2-yl)chroman-6-yl]oxy-3,4-dihydro-1H-1,8-naphthyridin-2-one], for which the values for the IC50 (on B-RAF^V600E kinase (setting [4]); at C-RAF Y340D/Y341D kinase (setting [5]); in assay [1] (setting [6])) were 4 to 100 nM, 4 to 100 nM and 70 to 300 nM, respectively.
On to `O=C1CCc2c(Oc3ccc4c(c3)CC(c3nc(-c5ccccc5)c[nH]3)CO4)ccnc2N1` (stereo not drawn) [Example 3, 5-[3-(4-phenyl-1H-imidazol-2-yl)chroman-6-yl]oxy-3,4-dihydro-1H-1,8-naphthyridin-2-one], for which the “paradoxical activation of MAPK pathway (ERK phosphorylation)” value (“paradoxical activation of MAPK pathway” below) in assay [2] was “reduced paradoxical activation of MAPK pathway in comparison to Dabrafenib; also recorded: reduced paradoxical activity”.
With `O=C1CCc2c(Oc3ccc4c(c3)CC(c3nc(-c5ccncc5)c[nH]3)CO4)ccnc2N1` (stereo not drawn) [Example 4, 5-[3-[4-(4-pyridyl)-1H-imidazol-2-yl]chroman-6-yl]oxy-3,4-dihydro-1H-1,8-naphthyridin-2-one], the IC50 was less than 4 nM at B-RAF^V600E kinase (setting [4]), less than 4 nM at C-RAF Y340D/Y341D kinase (setting [5]) and more than 300 nM in assay [1] (setting [6]). In assay [2], the “paradoxical activation of MAPK pathway” value is given as “reduced paradoxical activity”.
`CC(C)(C)c1c[nH]c(C2COc3ccc(Oc4ccnc5c4CCC(=O)N5)cc3C2)n1` (stereo not drawn) [Example 5, 5-[3-(4-tert-butyl-1H-imidazol-2-yl)chroman-6-yl]oxy-3,4-dihydro-1H-1,8-naphthyridin-2-one]: the figures for the IC50 on B-RAF^V600E kinase (setting [4]) and on C-RAF Y340D/Y341D kinase (setting [5]) were 4 to 100 nM and less than 4 nM, respectively.
Turning to `O=C1CCc2c(Oc3ccc4c(c3)CC(c3nc(-c5ccsc5)c[nH]3)CO4)ccnc2N1` (stereo not drawn) [Example 6, 5-[3-[4-(3-thienyl)-1H-imidazol-2-yl]chroman-6-yl]oxy-3,4-dihydro-1H-1,8-naphthyridin-2-one], the IC50 was less than 4 nM at B-RAF^V600E kinase (setting [4]); 1 nM at B-RAF^V600E kinase (setting [7]); less than 4 nM at C-RAF Y340D/Y341D kinase (setting [5]); 0.4 nM on C-RAF Y340D/Y341D kinase (setting [8]); 23.4 nM in assay [1] (setting [9]); less than 70 nM in assay [1] (setting [6]). Also, the “paradoxical activation of MAPK pathway” value in assay [2] was “reduced paradoxical activity”.
In the case of `O=C1CCc2c(Oc3ccc4c(c3)CC(c3nc(-c5cccs5)c[nH]3)CO4)ccnc2N1` (stereo not drawn) [Example 7, 5-[3-[4-(2-thienyl)-1H-imidazol-2-yl]chroman-6-yl]oxy-3,4-dihydro-1H-1,8-naphthyridin-2-one], the IC50 is less than 4 nM on B-RAF^V600E kinase (setting [4]); 1.1 nM on B-RAF^V600E kinase (setting [7]); less than 4 nM at C-RAF Y340D/Y341D kinase (setting [5]); 0.5 nM on C-RAF Y340D/Y341D kinase (setting [8]); less than 70 nM in assay [1] (setting [6]). The “paradoxical activation of MAPK pathway” value in assay [2] is recorded as “reduced paradoxical activity”.
`O=C1CCc2c(Oc3ccc4c(c3)CC(c3ncc(-c5ccccc5Cl)[nH]3)CO4)ccnc2N1` (stereo not drawn) [Example 8, 5-[3-[5-(2-chlorophenyl)-1H-imidazol-2-yl]chroman-6-yl]oxy-3,4-dihydro-1H-1,8-naphthyridin-2-one]: the IC50 on B-RAF^V600E kinase (setting [4]) and on C-RAF Y340D/Y341D kinase (setting [5]) was less than 4 nM throughout.
For `O=C1CCc2c(Oc3ccc4c(c3)CC(c3ncc(-c5cccc(Cl)c5)[nH]3)CO4)ccnc2N1` (stereo not drawn) [Example 9, 5-[3-[5-(3-chlorophenyl)-1H-imidazol-2-yl]chroman-6-yl]oxy-3,4-dihydro-1H-1,8-naphthyridin-2-one], the IC50 on B-RAF^V600E kinase (setting [4]) and at C-RAF Y340D/Y341D kinase (setting [5]) was less than 4 nM throughout.
For the compound `O=C1CCc2c(Oc3ccc4c(c3)CC(c3nc(-c5coc6ccccc56)c[nH]3)CO4)ccnc2N1` (stereo not drawn) [Example 10, 5-[3-[4-(benzofuran-3-yl)-1H-imidazol-2-yl]chroman-6-yl]oxy-3,4-dihydro-1H-1,8-naphthyridin-2-one], the IC50 on B-RAF^V600E kinase (setting [4]) and at C-RAF Y340D/Y341D kinase (setting [5]) was less than 4 nM throughout.
On to `O=C1CCc2c(Oc3ccc4c(c3)CC(c3ncc(-c5cccnc5)[nH]3)CO4)ccnc2N1` (stereo not drawn) [Example 11, 5-[3-[5-(3-pyridyl)-1H-imidazol-2-yl]chroman-6-yl]oxy-3,4-dihydro-1H-1,8-naphthyridin-2-one], for which the IC50 on B-RAF^V600E kinase (setting [4]) and on C-RAF Y340D/Y341D kinase (setting [5]) was less than 4 nM each time.
With `CS(=O)(=O)c1ccc(-c2cnc(C3COc4ccc(Oc5ccnc6c5CCC(=O)N6)cc4C3)[nH]2)cc1` (stereo not drawn) [Example 12, 5-[3-[5-(4-methylsulfonylphenyl)-1H-imidazol-2-yl]chroman-6-yl]oxy-3,4-dihydro-1H-1,8-naphthyridin-2-one], the IC50 on B-RAF^V600E kinase (setting [4]) is more than 100 nM; at C-RAF Y340D/Y341D kinase (setting [5]), 4 to 100 nM.
The corresponding values for `O=C1CCc2c(Oc3ccc4c(c3)CC(c3ncc(-c5ccc(F)cc5)[nH]3)CO4)ccnc2N1` (stereo not drawn) [Example 13, 5-[3-[5-(4-fluorophenyl)-1H-imidazol-2-yl]chroman-6-yl]oxy-3,4-dihydro-1H-1,8-naphthyridin-2-one] are less than 4 nM and less than 4 nM.
The corresponding values for `O=C1CCc2c(Oc3ccc4c(c3)CC(c3ncc(-c5ccc6c(c5)OCO6)[nH]3)CO4)ccnc2N1` (stereo not drawn) [Example 14, 5-[3-[5-(1,3-benzodioxol-5-yl)-1H-imidazol-2-yl]chroman-6-yl]oxy-3,4-dihydro-1H-1,8-naphthyridin-2-one] are less than 4 nM and less than 4 nM.
The corresponding values for `O=C1CCc2c(Oc3ccc4c(c3)CC(c3ncc(-c5ccc6c(c5)OCCO6)[nH]3)CO4)ccnc2N1` (stereo not drawn) [Example 15, 5-[3-[5-(2,3-dihydro-1,4-benzodioxin-6-yl)-1H-imidazol-2-yl]chroman-6-yl]oxy-3,4-dihydro-1H-1,8-naphthyridin-2-one] are 4 to 100 nM and less than 4 nM.
Consider `O=C1CCc2c(Oc3ccc4c(c3)C=C(c3nc(-c5ccccc5)c[nH]3)CO4)ccnc2N1` [Example 16, 5-[[3-(4-phenyl-1H-imidazol-2-yl)-2H-chromen-6-yl]oxy]-3,4-dihydro-1H-1,8-naphthyridin-2-one], for which the IC50 on B-RAF^V600E kinase (setting [4]) was 4 to 100 nM; at C-RAF Y340D/Y341D kinase (setting [5]), less than 4 nM; in assay [1] (setting [6]) it was more than 300 nM.
As to `O=C1CCc2c(Oc3ccc4c(c3)CC(c3nc(-c5ccccc5)no3)CO4)ccnc2N1` (stereo not drawn) [Example 17, 5-[3-(3-phenyl-1,2,4-oxadiazol-5-yl)chroman-6-yl]oxy-3,4-dihydro-1H-1,8-naphthyridin-2-one], the IC50 on B-RAF^V600E kinase (setting [4]) and on C-RAF Y340D/Y341D kinase (setting [5]) was 4 to 100 nM each time.
As to `O=C1CCc2c(Oc3ccc4c(c3)CC(c3cc(-c5ccccc5)[nH]n3)CO4)ccnc2N1` (stereo not drawn) [Example 18, 5-[3-(5-phenyl-1H-pyrazol-3-yl)chroman-6-yl]oxy-3,4-dihydro-1H-1,8-naphthyridin-2-one], the IC50 was less than 4 nM on B-RAF^V600E kinase (setting [4]), less than 4 nM at C-RAF Y340D/Y341D kinase (setting [5]) and more than 300 nM in assay [1] (setting [6]). For the same compound, the “paradoxical activation of MAPK pathway” value in assay [2] is recorded as “reduced paradoxical activity”.
For the compound `O=C1CCc2c(Oc3ccc4c(c3)O[C@@H](c3nc(-c5ccccc5)c[nH]3)CO4)ccnc2N1` [Example 19, 5-[[(3S)-3-(4-phenyl-1H-imidazol-2-yl)-2,3-dihydro-1,4-benzodioxin-6-yl]oxy]-3,4-dihydro-1H-1,8-naphthyridin-2-one], the IC50 on B-RAF^V600E kinase (setting [4]) was less than 4 nM; at C-RAF Y340D/Y341D kinase (setting [5]), less than 4 nM; in assay [3] (setting [10]), 70 to 300 nM; in assay [3] (setting [11]) it was more than 300 nM; in assay [1] (setting [9]) it was 155 nM; in assay [1] (setting [6]), 70 to 300 nM. Besides, in assay [2], the “paradoxical activation of MAPK pathway” value is listed as “reduced paradoxical activity”.
In the case of `O=C1CCc2c(Oc3ccc4c(c3)O[C@H](c3nc(-c5ccccc5)c[nH]3)CO4)ccnc2N1` [Example 20, 5-[[(3R)-3-(4-phenyl-1H-imidazol-2-yl)-2,3-dihydro-1,4-benzodioxin-6-yl]oxy]-3,4-dihydro-1H-1,8-naphthyridin-2-one], the IC50 at B-RAF^V600E kinase (setting [4]) is less than 4 nM; on C-RAF Y340D/Y341D kinase (setting [5]), less than 4 nM; in assay [3] (setting [10]), 70 to 300 nM; in assay [3] (setting [11]), more than 300 nM; in assay [1] (setting [9]), 282 nM; in assay [1] (setting [6]) it was 70 to 300 nM. Also, in assay [2], the “paradoxical activation of MAPK pathway” value is “reduced paradoxical activity”.
On to `Cc1cc(Oc2ccc3c(c2)CC(c2ncc(-c4ccccc4)[nH]2)CO3)ccn1` (stereo not drawn) [Example 21, 2-Methyl-4-[3-(5-phenyl-1H-imidazol-2-yl)chroman-6-yl]oxy-pyridine], for which the IC50 at B-RAF^V600E kinase (setting [4]) and at C-RAF Y340D/Y341D kinase (setting [5]) was 4 to 100 nM in each case.
